US9326503B2, “Biocide compositions comprising branched alkyl polyglycosides” (Cognis IP Management GmbH, priority 2009, dated 2016)

How the values were obtained:
Asian Soybean Rust = assay: Field trial in Brazil: soybean crop yield under Asian Soybean Rust, fungicide with or without adjuvant; format: in vivo; conditions: where added, 150 ml/ha
Protocol: Field trials were conducted in Brazil. Two standard biocide compositions from the market were applied to soybean crops: OPERA® (BASF) contains 5% w/w epoxiconazole and 13.3% w/w pyraclostrobin, the former is a preventive and curative fungicide, the latter a protectant, curative, and translaminar fungicide. FOLICUR® (Bayer CropScience) contains tebuconazole, a fungicide with protective, curative, and eradicant properties. The two compositions were applied at full recommended rate and at a 50% level. These experiments are compared to similar treatment of the plants adding in both cases adjuvant mixtures at a concentration of 150 ml/ha.

[1] = tested on: barnyard grass and green foxtail; assay: Uptake of radio-labelled nicosulfuron with adjuvant, compared with crop oil concentrate; format: in vivo; conditions: adjuvant rate giving the same nicosulfuron uptake as COC (uptake with COC set to 100%); nicosulfuron (ACCENT WDG 75) 0.031% w/v
Protocol: A separate study was undertaken to compare the performance of the invented composition compared with an industry standard, more particularly a crop oil concentrate (COC), on the uptake of nicosulfuron on barnyard grass and green foxtail. Nicosulfuron as ACCENT® WDG 75 was used at 0.031% w/v (46.7 g active ingredient/150 l/ha). Radio-labelled nicosulfuron (50 mCi/mmol) was added to freshly prepared treatment solution 0.5 h prior to use. The ^14C nicosulfuron comprised 7% by mass. Spray solutions with nicosulfuron alone i.e. without adjuvant, were formulated in 50% acetone. All additives were used at the same concentration. The uptake using COC (Example C3) was set to 100%, therefore the data in Table 2, below, reflects the reduction in concentration of the other adjuvants in order to achieve the same level of uptake for COC. In other words, one can reduce the amount of adjuvant by 75-80% in order to achieve the same effects compared to the use of COC.

[2] = FOLICUR (tebuconazole) at full recommended rate
[3] = FOLICUR at 50% of the full recommended rate
[4] = OPERA (5% epoxiconazole, 13.3% pyraclostrobin) at full recommended rate
[5] = OPERA at 50% of the full recommended rate

| Substance | Soybean Crop Yield influenced by Asian Soybean Rust - relative to control (=100), FOLICUR (Asian Soybean Rust; [2]) | Soybean Crop Yield influenced by Asian Soybean Rust - relative to control (=100), FOLICUR (Asian Soybean Rust; [3]) | Soybean Crop Yield influenced by Asian Soybean Rust - relative to control (=100), OPERA (Asian Soybean Rust; [4]) | Soybean Crop Yield influenced by Asian Soybean Rust - relative to control (=100), OPERA (Asian Soybean Rust; [5]) | Adjuvant rate [1] [% v/v] |
| --- | --- | --- | --- | --- | --- |
| 2-Octyldodecyl polyglucoside (DP 1.7) [Example 1] | 141 | 161 | 161 | 137 | 0.24 |
| Cetearyl polyglucoside (DP 1.5) [C1, reference compound] | 127 | 149 | 150 | 129 | 0.19 |
| Isostearyl polyglucoside (DP 1.5) [Example 2] | 135 | 156 | 153 | 137 | 0.22 |
